# Test results reported in ChEMBL document CHEMBL1201862, “PubChem BioAssay data set” (2004).
# The source made the active and inactive calls.
# How the values were obtained:
# SUMO-activating enzyme [1] = target: T1, SUMO-activating enzyme (Homo sapiens, UniProt Q9UBT2); experiment: blockers of UBC9-mediated SUMO conjugation – biochemical, AlphaScreen, SUMOylation inhibitor project, confirmation (AID 2018); assay type: functional
# [2] = target: Induced myeloid leukemia cell differentiation protein Mcl-1 (Homo sapiens, UniProt Q07820); assay type: functional
# SUMO-activating enzyme [3] = target: T1, SUMO-activating enzyme; experiment: blockers of SAE1/SAE2–UBC9 SUMO transfer – biochemical, HTRF, uHTS, primary screen (AID 2006); assay type: protein-complex assay
# [4] = THP-1 cell cytotoxicity, dose response, cytotoxicity control for non-replicating M. tuberculosis project (AID 489025); assay type: functional
# [5] = Vero E6 cell cytotoxicity, dose response, cytotoxicity control for non-replicating M. tuberculosis project, secondary assay (AID 492998); assay type: functional, VeroE6; conditions: Vero C1008
# cells = assay type: functional
# [6] = HEK-293T viability loss after treatment – luminescence, T-cell screen hits, cytotoxicity control for TCR NF-kB inhibitor project, dose response (AID 489026); assay type: functional, cell-based;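 also: cells exposed to compound about 14 hours before the viability readout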
# [7] = target: T2, Endoribonuclease toxin MazF (Escherichia coli K-12, UniProt P0AE70); experiment: substrate-only fluorescence increase artefacts – biochemical, single-stranded RNase substrate, counter-screen for MazEF activator project, dose response (AID 588502); assay type: functional
# T2 sequence (P0AE70 whole entry): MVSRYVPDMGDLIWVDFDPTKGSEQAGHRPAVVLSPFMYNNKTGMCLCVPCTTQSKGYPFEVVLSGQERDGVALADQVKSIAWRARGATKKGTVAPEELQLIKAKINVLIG
# [8] = target: T2, Endoribonuclease toxin MazF; experiment: activation of MazEF endoribonuclease cleavage – biochemical, fluorescence, single-stranded RNA substrate, uHTS hits, dose response (AID 588481); assay type: functional
# ORF 73 = target: T3, ORF 73 (Human herpesvirus 8, UniProt O40947); experiment: KSHV LANA DNA-binding disruption – biochemical, fluorescence polarization, cherry-picked samples, dose response (AID 504725); set-up: species or system Human gammaherpesvirus 8;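 also: fluorescence polarization of a labeled DNA duplex reporting LANA DNA binding; potency is for inhibitors that block LANA binding to the DNA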
# T3 sequence (O40947 whole entry): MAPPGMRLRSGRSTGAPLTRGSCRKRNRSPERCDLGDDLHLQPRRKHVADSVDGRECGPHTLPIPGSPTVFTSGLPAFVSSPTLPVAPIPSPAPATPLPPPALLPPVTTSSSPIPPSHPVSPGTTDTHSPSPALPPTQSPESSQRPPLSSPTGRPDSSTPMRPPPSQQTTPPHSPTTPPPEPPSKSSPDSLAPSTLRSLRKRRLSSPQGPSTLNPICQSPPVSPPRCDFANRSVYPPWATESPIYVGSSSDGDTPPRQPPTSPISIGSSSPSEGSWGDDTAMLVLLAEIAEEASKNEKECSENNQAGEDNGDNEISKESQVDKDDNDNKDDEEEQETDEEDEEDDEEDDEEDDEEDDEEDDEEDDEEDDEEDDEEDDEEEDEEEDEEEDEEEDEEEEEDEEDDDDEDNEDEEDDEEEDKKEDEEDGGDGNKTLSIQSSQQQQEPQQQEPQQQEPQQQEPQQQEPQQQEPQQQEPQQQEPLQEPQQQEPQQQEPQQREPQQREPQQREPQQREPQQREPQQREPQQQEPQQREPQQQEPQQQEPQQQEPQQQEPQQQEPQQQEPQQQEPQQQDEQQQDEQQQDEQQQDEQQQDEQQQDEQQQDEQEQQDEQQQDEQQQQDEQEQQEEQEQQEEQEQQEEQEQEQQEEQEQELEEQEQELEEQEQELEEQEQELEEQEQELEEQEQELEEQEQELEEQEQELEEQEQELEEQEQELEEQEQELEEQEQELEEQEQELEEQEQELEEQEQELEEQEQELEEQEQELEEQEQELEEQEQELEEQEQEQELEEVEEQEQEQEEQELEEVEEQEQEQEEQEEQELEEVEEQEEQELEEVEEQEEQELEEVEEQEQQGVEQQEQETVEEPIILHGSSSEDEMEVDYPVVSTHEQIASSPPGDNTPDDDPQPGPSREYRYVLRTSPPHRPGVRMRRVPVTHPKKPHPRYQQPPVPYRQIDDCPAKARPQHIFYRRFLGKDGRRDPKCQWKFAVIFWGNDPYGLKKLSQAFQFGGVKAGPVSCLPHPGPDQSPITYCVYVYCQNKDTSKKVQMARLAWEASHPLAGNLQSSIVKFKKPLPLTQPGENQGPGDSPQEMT
# Protein skinhead-1 = target: T4, Protein skinhead-1 (Caenorhabditis elegans, UniProt P34707); assay type: functional
# T4 sequence (P34707 whole entry): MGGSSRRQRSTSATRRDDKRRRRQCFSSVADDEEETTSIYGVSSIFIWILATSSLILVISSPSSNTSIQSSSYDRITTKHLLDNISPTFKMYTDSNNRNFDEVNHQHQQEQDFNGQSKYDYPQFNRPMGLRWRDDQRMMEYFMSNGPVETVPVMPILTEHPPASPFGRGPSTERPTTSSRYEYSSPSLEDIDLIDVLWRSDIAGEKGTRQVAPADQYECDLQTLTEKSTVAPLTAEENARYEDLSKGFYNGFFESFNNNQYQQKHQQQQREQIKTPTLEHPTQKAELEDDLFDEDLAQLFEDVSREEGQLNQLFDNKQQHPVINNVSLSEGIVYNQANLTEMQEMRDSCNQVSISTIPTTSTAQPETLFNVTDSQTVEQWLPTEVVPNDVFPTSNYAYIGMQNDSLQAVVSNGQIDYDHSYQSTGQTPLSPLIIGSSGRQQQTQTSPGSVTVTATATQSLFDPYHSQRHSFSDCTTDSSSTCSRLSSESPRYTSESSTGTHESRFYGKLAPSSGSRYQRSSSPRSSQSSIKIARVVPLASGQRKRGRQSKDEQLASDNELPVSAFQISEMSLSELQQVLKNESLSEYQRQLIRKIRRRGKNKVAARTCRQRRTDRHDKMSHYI
# [9] = target: T5, E3 ubiquitin-protein ligase XIAP (Homo sapiens, UniProt P98170); experiment: Counter Screen using XIAP-Bir3 for Chemical Antagonists of Bir1/2 domains of IAP-family anti-apoptotic proteins. [Related pubchem assays (depositor defined):AID1018, AID1449, AID1514, AID1638, AID1749, AID1750, AID488957, AID488963]
# [10] = target: T5, E3 ubiquitin-protein ligase XIAP; experiment: small molecules displacing peptide from XIAP – biochemical, IAP family, fluorescence polarization (AID 1018); assay type: functional
# [11] = target: DNA dC->dU-editing enzyme APOBEC-3G (Homo sapiens, UniProt Q9HC16); experiment: Dose Response confirmation of small molecule APOBEC3G DNA Deaminase Inhibitors via a fluorescence-based single-stranded DNA deaminase assay. [Related pubchem assays (depositor defined):AID493012, AID493028]; assay type: functional
# [12] = target: T6, Voltage-gated N-type calcium channel alpha-1B subunit/Amyloid beta A4 precursor protein-binding family A member 1 (Homo sapiens, UniProt Q00975+Q02410); assay type: protein assay
# [13] = target: T6, Voltage-gated N-type calcium channel alpha-1B subunit/Amyloid beta A4 precursor protein-binding family A member 1; assay type: protein assay; remark: listed apart in the source
# Trypsin = Trypsin (Sus scrofa, UniProt P00761); experiment: trypsin protease activity blockade – biochemical, quenched peptide fluorescence, cherry-pick, selectivity assay for Rce1 protease inhibitor project, dose response (AID 488789)
# Streptococcus = experiment: GAS UMAA2166 growth inhibition – luminescence, BacTiterGlo, counter-screen for streptokinase expression inhibitor project, dose response (AID 1915); assay type: functional, organism-based;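 also: potency for reduction of bacterial viability or growth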
# Streptokinase A = target: T7, Streptokinase A (Streptococcus pyogenes serotype M1, UniProt P10520); experiment: viability-normalized secreted streptokinase activity reduction – plasminogen activation absorbance, OD405, dose response (AID 1914); assay type: functional, Streptococcus pyogenes M1 GAS;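 also: secreted streptokinase activity via plasminogen activation per viability signal from cell pellet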
# T7 sequence (P10520 whole entry): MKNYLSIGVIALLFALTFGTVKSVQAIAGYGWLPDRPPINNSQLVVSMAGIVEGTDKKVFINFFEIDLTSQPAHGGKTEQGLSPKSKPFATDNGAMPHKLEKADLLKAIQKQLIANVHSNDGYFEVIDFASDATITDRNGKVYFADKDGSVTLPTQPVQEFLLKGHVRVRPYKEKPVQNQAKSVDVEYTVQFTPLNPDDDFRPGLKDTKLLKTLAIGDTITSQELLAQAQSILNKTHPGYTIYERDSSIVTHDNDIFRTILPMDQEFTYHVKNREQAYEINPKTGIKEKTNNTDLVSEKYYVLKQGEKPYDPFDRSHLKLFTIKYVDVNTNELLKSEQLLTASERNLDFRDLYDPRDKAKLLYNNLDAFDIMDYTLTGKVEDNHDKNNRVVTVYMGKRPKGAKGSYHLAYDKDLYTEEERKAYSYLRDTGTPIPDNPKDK
# X-box-binding protein 1 = target: T8, X-box-binding protein 1 (Homo sapiens, UniProt P17861); assay type: functional, Cricetulus griseus;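 also: confirmatory dose-response counter-screen serving a CHOP assay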
# T8 sequence (P17861 whole entry): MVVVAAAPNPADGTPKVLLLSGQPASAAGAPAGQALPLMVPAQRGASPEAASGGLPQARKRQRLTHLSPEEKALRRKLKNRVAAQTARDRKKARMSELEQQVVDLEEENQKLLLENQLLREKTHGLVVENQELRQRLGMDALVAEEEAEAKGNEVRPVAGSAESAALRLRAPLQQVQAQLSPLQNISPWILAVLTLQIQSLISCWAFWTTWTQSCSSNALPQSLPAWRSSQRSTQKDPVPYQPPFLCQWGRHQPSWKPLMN
# [14] = test system: Streptococcus sp. 'group A'; experiment: Streptococcus pyogenes SK(-)GAS viability under kanamycin – luminescence, BacTiterGlo, confirmation, counter-screen for streptokinase expression inhibitor project, dose response (AID 1900); assay type: functional, organism-based
# [15] = Luminescence Cell-Based Dose Retest to Confirm Inhibitors of Cancer Stem Cells. [Related pubchem assays (depositor defined):AID2717, AID2721]; assay type: functional; conditions: Homo sapiens
# [16] = target: T9, Heat shock factor protein 1 (Mus musculus, UniProt P38532); experiment: decrease of HSF1-responsive luciferase luminescence – cell-based, NIH3T3, dose retest, confirmation (AID 2382); assay type: functional;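 also: NIH3T3 fibroblasts with HSF1-driven luciferase reporter stressed by proteasome inhibitor MG132; luminescence from HSF1-driven luciferase expression after 8 hours of MG132 stress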
# T9 sequence (P38532 whole entry): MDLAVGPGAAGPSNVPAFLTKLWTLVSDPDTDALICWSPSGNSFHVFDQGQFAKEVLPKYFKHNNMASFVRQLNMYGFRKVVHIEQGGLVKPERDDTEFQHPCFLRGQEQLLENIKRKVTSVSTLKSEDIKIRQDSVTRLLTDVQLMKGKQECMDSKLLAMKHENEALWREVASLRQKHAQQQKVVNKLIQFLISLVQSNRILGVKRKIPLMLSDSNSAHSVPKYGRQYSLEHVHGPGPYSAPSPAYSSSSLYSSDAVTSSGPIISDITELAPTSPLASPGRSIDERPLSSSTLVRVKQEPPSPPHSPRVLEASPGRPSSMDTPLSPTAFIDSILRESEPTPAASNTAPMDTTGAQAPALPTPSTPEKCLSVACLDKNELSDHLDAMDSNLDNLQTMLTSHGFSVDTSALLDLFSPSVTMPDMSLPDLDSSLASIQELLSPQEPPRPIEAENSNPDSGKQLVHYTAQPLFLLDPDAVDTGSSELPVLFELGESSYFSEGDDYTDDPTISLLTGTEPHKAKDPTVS
# T5 sequence (P98170 whole entry): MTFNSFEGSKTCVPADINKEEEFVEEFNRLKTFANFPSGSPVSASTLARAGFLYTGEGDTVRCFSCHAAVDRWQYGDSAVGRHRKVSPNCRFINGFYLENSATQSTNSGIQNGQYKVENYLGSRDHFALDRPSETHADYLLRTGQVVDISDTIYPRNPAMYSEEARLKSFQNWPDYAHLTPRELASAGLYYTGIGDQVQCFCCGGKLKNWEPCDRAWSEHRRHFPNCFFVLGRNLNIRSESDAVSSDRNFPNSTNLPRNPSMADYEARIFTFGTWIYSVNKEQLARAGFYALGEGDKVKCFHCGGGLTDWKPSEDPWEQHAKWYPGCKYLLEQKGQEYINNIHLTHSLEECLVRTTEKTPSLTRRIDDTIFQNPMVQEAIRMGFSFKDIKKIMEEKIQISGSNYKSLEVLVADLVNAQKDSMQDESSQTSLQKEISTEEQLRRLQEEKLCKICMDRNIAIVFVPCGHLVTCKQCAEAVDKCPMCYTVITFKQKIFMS
# T6 sequence (Q00975 whole entry): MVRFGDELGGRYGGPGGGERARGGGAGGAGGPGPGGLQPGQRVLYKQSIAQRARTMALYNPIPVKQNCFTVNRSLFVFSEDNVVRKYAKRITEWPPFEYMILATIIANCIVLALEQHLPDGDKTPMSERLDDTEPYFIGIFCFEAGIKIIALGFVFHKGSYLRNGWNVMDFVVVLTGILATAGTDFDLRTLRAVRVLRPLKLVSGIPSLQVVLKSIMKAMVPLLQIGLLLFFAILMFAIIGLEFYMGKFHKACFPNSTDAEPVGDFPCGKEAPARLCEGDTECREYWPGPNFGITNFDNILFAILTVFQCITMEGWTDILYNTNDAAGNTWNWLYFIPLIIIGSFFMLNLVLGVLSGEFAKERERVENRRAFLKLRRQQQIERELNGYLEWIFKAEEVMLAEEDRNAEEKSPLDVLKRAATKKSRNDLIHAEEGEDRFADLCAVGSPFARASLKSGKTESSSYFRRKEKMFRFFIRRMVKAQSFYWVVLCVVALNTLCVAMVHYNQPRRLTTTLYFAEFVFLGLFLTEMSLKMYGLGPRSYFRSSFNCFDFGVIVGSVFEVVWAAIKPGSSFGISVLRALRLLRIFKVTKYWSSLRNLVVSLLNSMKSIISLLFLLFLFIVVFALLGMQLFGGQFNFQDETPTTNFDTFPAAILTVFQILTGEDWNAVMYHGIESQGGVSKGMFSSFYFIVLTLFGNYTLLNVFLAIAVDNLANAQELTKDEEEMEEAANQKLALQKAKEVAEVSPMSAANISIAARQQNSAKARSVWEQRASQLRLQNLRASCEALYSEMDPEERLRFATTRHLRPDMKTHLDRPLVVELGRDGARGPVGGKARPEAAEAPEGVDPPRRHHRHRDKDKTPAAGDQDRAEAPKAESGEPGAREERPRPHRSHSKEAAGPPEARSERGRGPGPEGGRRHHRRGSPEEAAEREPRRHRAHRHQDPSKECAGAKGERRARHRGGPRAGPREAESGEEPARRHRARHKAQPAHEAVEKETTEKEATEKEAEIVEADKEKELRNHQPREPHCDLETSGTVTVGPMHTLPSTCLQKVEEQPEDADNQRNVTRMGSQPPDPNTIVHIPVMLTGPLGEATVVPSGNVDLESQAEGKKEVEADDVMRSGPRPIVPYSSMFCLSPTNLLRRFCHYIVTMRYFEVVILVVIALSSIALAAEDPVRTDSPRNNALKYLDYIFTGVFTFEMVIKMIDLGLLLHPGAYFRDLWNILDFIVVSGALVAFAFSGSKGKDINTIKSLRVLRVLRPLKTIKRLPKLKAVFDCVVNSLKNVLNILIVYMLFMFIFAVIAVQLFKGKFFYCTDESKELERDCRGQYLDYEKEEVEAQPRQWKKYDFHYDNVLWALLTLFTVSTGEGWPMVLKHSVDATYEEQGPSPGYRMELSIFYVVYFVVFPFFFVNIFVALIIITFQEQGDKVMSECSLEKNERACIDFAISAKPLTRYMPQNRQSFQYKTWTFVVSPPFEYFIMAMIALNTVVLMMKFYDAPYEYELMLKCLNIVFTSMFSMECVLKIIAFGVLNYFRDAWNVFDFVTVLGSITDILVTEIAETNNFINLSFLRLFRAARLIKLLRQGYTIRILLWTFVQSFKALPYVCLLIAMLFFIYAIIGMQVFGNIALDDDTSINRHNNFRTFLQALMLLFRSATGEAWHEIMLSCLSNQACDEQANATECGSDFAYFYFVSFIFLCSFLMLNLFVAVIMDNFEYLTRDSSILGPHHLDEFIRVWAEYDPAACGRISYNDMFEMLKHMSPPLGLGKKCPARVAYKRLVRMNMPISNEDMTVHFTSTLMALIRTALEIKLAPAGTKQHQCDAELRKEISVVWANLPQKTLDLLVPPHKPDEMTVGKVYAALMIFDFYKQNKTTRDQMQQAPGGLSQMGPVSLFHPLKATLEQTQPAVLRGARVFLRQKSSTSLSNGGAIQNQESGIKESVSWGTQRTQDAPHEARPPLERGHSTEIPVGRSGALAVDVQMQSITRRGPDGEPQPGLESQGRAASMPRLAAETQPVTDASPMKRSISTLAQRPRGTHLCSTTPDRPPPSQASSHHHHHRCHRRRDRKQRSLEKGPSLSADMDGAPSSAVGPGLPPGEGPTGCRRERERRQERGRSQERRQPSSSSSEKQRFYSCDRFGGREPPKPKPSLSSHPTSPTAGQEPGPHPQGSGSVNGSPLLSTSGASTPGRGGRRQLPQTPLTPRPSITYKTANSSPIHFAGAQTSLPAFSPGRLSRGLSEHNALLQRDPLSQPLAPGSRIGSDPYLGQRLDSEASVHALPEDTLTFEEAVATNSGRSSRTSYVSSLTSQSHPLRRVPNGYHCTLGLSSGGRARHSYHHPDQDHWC
# T6 sequence (Q02410 whole entry): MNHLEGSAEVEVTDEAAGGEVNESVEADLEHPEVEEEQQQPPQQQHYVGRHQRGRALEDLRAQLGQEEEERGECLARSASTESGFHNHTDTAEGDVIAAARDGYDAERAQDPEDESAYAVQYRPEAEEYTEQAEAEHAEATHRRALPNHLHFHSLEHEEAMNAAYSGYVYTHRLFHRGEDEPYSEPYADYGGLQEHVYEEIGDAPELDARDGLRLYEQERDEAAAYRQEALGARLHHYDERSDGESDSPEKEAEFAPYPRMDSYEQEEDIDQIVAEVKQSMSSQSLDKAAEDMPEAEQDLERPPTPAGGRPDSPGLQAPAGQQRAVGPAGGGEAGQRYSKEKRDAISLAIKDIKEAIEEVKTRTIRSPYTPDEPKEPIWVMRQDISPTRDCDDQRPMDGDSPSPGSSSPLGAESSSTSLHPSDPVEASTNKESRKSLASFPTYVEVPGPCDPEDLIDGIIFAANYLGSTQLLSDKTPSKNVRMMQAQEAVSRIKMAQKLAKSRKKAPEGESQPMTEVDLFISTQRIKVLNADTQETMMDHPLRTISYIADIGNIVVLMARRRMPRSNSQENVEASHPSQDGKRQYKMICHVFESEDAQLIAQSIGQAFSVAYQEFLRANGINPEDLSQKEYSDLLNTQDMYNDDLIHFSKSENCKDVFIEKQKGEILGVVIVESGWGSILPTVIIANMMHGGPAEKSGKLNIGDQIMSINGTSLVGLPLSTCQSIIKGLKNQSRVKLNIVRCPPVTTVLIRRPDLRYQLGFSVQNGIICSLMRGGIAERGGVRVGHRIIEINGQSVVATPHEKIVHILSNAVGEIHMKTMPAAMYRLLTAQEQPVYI
# T1 sequence (Q9UBE0 whole entry): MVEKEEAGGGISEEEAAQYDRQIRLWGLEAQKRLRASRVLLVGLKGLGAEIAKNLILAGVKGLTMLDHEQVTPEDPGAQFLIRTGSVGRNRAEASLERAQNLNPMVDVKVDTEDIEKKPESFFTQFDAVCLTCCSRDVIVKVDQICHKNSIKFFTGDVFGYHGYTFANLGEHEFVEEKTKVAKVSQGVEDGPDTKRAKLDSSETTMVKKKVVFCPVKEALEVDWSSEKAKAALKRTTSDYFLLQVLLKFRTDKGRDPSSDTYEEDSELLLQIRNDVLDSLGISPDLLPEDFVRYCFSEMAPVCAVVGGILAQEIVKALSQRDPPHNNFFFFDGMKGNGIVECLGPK
# T1 sequence (Q9UBT2 whole entry): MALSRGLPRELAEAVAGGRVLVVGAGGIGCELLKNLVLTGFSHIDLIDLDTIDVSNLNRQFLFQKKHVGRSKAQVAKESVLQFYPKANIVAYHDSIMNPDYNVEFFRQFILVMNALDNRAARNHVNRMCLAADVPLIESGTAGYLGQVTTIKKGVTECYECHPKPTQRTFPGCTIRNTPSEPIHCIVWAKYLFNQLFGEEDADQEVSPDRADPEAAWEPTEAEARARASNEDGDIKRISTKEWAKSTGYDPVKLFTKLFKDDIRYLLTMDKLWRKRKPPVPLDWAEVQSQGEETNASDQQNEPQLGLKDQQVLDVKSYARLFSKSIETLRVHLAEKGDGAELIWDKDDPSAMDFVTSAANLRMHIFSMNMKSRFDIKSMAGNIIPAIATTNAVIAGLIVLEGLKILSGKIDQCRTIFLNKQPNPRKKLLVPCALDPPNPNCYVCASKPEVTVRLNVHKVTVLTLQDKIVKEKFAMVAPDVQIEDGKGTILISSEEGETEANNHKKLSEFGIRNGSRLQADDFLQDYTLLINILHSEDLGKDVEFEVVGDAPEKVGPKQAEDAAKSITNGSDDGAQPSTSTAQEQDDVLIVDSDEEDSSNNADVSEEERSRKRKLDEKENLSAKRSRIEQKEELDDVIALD
# Induced myeloid leukemia cell differentiation protein Mcl-1, sequence (Q07820 whole entry): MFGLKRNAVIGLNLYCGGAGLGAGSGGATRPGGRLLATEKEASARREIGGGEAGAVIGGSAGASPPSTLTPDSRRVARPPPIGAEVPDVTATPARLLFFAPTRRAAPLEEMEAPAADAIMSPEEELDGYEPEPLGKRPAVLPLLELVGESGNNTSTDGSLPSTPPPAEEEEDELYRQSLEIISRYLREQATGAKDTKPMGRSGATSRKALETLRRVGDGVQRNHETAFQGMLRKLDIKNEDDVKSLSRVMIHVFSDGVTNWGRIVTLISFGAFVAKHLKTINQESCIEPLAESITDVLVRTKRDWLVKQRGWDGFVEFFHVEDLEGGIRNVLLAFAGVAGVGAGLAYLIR
smiles,measurement,setting,value
N=C1S/C(=C\c2ccco2)C(=O)N1c1ccc2c(c1)OCO2,IC50,SUMO-activating enzyme [1],13.4 µM (active)
same,IC50,[2],9.96 µM (active)
same,IC50,SUMO-activating enzyme [3],39.9 µM (active)
COC(=O)c1ccc(Sc2nnnn2-c2ccccc2)c([N+](=O)[O-])c1,CC50,[4],20.5 µM (active)
same,CC50,[5],> 20 µM (active)
same,IC50,cells,14.3 µM (active)
O=C(c1ccccc1)c1cc([N+](=O)[O-])ccc1N1CCOCC1,IC50,[6],> 80 µM (inactive)
CCC(=O)Oc1ccc2c(c1)O/C(=C\c1ccco1)C2=O,EC50,[7],31.5 µM (inactive)
same,EC50,[8],> 99 µM (inactive)
same,AC50,ORF 73,14.1 µM (active)
Nc1cccc2cc(S(=O)(=O)O)ccc12,IC50,Protein skinhead-1,> 100 µM (inactive)
same,AC50,ORF 73,108 µM (active)
Cc1nc([N+](=O)[O-])c(Br)n1CC(=O)c1ccccc1,CC50,[4],40 µM (active)
same,CC50,[5],18.6 µM (active)
same,IC50,cells,10.8 µM (active)
CC1CCCC(NC(=O)c2cn(C)c3ccc(S(=O)(=O)N4CCCC4)cc3c2=O)C1C (stereo not drawn),IC50,[9],> 100 µM (inactive)
same,IC50,[10],> 100 µM (not active)
CCC(=O)OC1c2ccccc2C(=O)N1Cc1ccccc1 (stereo not drawn),IC50,[9],> 100 µM (inactive)
same,IC50,[10],> 100 µM (not active)
CCOC(=O)c1c(NC(=O)c2ccccc2Cl)sc2c1CCc1ccccc1-2,IC50,[11],> 100 µM (inactive)
CC(=O)c1cnc(-c2ccccc2)s1,IC50,[9],> 100 µM (inactive)
same,IC50,[10],> 100 µM (not active)
C=CCOC(=O)/C=C/C(=O)NC(N)=O,IC50,[12],2.95 µM (active)
same,IC50,[13],7.61 µM (active)
COc1ccc(S(=O)(=O)NCC2CCCO2)cc1NC(=O)c1ccccc1F (stereo not drawn),AC50,Trypsin,33 µM (active)
CCc1nc2c(cnn2-c2ccc(Cl)cc2)c(=O)n1-c1ccc(OC)cc1,EC50,Streptococcus,> 150 µM (not active)
same,EC50,Streptokinase A,> 150 µM (not active)
same,Absolute IC50 (XBP1),X-box-binding protein 1,10 µM
same,EC50,[14],28.3 µM (active)
CNC(=O)C1C(S)=NC(N)=C(C#N)C1c1ccccc1 (stereo not drawn),IC50,[12],> 50 µM (inactive)
same,AC50,[15],> 195 µM (inactive)
same,IC50,[13],1.68 µM (active)
same,EC50,[16],19 µM (active)
